Each block holds one compound with its values, some of them ahead of it.
How the values were obtained:
[1] = AUC (0 to infinity) in human at 25 to 1200 mg, po measured up to 480 hrs by HPLC-MS/MS analysis; format: ADME, organism-based; settings: in vivo
[2] = Half life in human at 25 to 1200 mg, po measured up to 480 hrs by HPLC-MS/MS analysis; format: ADME, organism-based; settings: in vivo
[3] = Tmax in human at 25 to 1200 mg, po measured up to 480 hrs by HPLC-MS/MS analysis; format: ADME, organism-based; settings: in vivo
Plasmodium falciparum [4] = experiment: Antimalarial activity against Plasmodium falciparum 3D7; format: functional, organism-based
[5] = Drug level in human Plasma treated with [14C]-KAE609 assessed metabolite formation; format: ADME, cell-free
[6] = Inhibition of Plasmodium falciparum PI4K by pull down assay; design: species or system Plasmodium vivax
[7] = biological target: Dihydroorotate dehydrogenase (quinone), mitochondrial (Homo sapiens, UniProt Q02127); experiment: Inhibition of human DHODH expressed in Escherichia coli using L-dihydroorotate as substrate
Chain of Dihydroorotate dehydrogenase (quinone), mitochondrial (Q02127 whole entry): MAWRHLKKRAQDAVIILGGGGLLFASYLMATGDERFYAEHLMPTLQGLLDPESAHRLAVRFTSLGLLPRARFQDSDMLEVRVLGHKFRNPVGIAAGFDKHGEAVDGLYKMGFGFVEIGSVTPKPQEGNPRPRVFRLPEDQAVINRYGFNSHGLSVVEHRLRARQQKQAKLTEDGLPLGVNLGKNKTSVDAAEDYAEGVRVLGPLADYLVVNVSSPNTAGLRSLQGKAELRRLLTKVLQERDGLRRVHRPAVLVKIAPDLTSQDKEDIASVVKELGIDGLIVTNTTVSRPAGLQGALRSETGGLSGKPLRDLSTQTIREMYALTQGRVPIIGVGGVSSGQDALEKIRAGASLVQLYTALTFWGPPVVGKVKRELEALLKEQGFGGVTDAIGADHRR

[8] = biological target: T1, Dihydroorotate dehydrogenase (Plasmodium falciparum, UniProt Q54A96); experiment: Inhibition of Plasmodium falciparum DHODH expressed in Escherichia coli using L-dihydroorotate as substrate
T1 sequence (Q54A96 whole entry): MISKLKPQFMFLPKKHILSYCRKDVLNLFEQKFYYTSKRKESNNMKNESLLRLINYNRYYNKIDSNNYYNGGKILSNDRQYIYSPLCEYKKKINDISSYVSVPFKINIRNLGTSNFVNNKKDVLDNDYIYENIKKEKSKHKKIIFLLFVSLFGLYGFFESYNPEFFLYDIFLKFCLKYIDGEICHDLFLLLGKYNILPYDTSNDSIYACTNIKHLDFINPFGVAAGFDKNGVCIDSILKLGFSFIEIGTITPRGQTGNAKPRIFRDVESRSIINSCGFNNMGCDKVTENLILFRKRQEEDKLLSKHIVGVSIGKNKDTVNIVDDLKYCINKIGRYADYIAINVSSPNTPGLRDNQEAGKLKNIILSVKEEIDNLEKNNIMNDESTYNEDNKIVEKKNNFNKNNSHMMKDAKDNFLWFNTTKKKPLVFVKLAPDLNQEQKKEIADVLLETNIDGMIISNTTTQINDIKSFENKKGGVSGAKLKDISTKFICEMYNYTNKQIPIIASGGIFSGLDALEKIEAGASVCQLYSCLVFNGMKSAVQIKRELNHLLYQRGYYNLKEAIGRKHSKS

Plasmodium falciparum [9] = experiment: Antimalarial activity against Plasmodium falciparum; format: functional, organism-based

AUC(0-inf) [1]: 167 to 1170 µg·h/mL | half-life [2]: 98 to 164 h | Tmax [3]: 95 to 143 h | EC50 (Plasmodium falciparum [4]): 1.8 µM
Compound: CC(F)(F)c1nc2nc(CO)cc(Nc3ccc(S(F)(F)(F)(F)F)cc3)n2n1

Drug uptake [5]: 8%
Compound: C[C@H]1Cc2c([nH]c3cc(Cl)c(F)cc23)-c2c3cc(Cl)ccc3nc(=O)n21

EC50 [6]: 0.0016 µM
Compound: Nc1ncc(-c2ccc(C(=O)N3CCC(N)C3)cc2)nc1-c1ccc(C(F)(F)F)cc1 (centres undefined)

IC50 [7]: 3.7 µM | IC50 [8]: 0.01 µM | EC50 (Plasmodium falciparum [9]): 0.002 µM
Compound: Cc1cc(Nc2ccc(S(F)(F)(F)(F)F)c(F)c2)n2nc(C(C)(F)F)nc2n1
